The text below walks through data of US20030157491A1, “HarA polypeptides and nucleic acids, and related methods and uses thereof” (priority 2002, published 2003).

In one test the test system is S. aureus RN4220 ("SA1"). Nature of the test: MIC by broth microdilution, wild-type sensitive S. aureus RN4220. It is filed as cell-based, Staphylococcus aureus. As to conditions: duplicate. As to the method: (§1) Quantitative assessment of resistance was performed by a broth microdilution method using cation-supplemented Mueller-Hinton broth containing antibiotics, the concentration of which varied in two-fold increments.
(§2) Preferably, the microdilution assay is performed using cation-adjusted Mueller-Hinton broth according to NCCLS (National Committee for Clinical Laboratory Standards) guideline M31 -A, Vol. 19, No. 11, “Performance standards for antimicrobial disk and dilution susceptibility tests for bacteria isolated from animals,” June 1999 (ISBN 1-56238-377-9), which is herein incorporated by reference.
(§3) To confirm the role of expZ in conferring resistance to hygromycin A analogues and other compounds, applicants examined the effect of B. subtilis and E. faecalis expZ expression and disruption on antibiotic resistance patterns. […] Also shown in Table 1 is the conferral of the “harA” phenotype on the normally drug-sensitive S. aureus RN4220 strain by transformation with a pMP plasmid containing B. subtilis harA.
(Broth dilution looks for growth in wells or tubes with falling amounts of substance.)

Another test has as its system SA1 (pMP20). Nature of the test: MIC by broth microdilution, S. aureus RN4220 with vector only (pMP20). It is filed as cell-based, Staphylococcus aureus. As to the method: (§4) To identify genes whose products might be important in establishing the intrinsic level of resistance to hygromycins, applicants screened a recombinant library of B. subtilis chromosomal DNA segments cloned into the E. coli-S. aureus shuttle vector pMP20 for S. aureus transformants with increased levels of resistance to a hygromycin analogue, as follows:
(§5) Chromosomal DNA was extracted from a 100 mL culture of B. subtilis strain JH642 grown in L both, partially digested with Sau3A and fractionated by electrophoresis in a 1% agarose gel. A fraction corresponding in size to 2-4 kb was purified and used for ligation with pMP20 that had been digested with BamHI and dephosphorylated with alkaline phosphatase. Ligated DNA was used to transform E. coli DH5α by electroporation, with selection for ampicillin resistance. Transformant colonies were pooled; the plasmid DNA mixture was extracted and used to transform S. aureus RN4220 by electroporation with selection on plates containing erythromycin (2 μg/mL) and 2 μg/mL of a nonpolar hygromycin A analogue, 3-(4-((2S,4S,5R)-5-(3-(2,4-dichloro-phenoxy)-1-methyl)-(1E)-propenyl)-4-hydroxy-tetrahydro-furan-2-yloxy)-3-hydroxy-phenyl)-2-methyl-N-((3aS,4R,5R,6S,7R,7aR)-4,6,7-trihydroxy-hexahydro-benzo(1,3)dioxol-5-yl)-(2E)-acrylamide, which is Example 68 of WO 00/32616 and referred to herein as “Compound 1”.
(§6) Vector-transformed S. aureus cells were sensitive to this level of Compound 1. Plasmid segregation and backcross experiments confirmed that plasmids harboring DNA segments from the B. subtilis chromosome conferred hygromycin A resistance in S. aureus. The MIC for Compound 1 was increased in these strains from ≦0.2 μg/mL for pMP20 transformants to 50 μg/mL for cells transformed with the recombinant plasmids.
as §1, §2, §3

The subject of the next test is SA1 (pMP20 Bs_harA+). The experiment in a line: MIC by broth microdilution, S. aureus RN4220 with vector carrying B. subtilis harA. It is filed as cell-based, Staphylococcus aureus. As to conditions: for increase in the MIC: sensitive S. aureus strain compared to same strain transformed with and expressing harA. As to the method:
as §4, §5, §6, §1, §2, §3

Test [1] has as its system B. subtilis JH642 trpC2 pheA1 ("BS1"). The experiment in a line: MIC by broth microdilution, wild-type resistant B. subtilis JH642. It is filed as cell-based, Bacillus subtilis. As to conditions: duplicate. As to the method: as §1, §2, §3
In a further test the test system is BS1 (harA::cat). The experiment in a line: MIC by broth microdilution, B. subtilis JH642 harA disruption mutant. Format: cell-based, Bacillus subtilis. As to conditions: for MIC: BS1 (harA::cat), disruption mutant, broth microdilution, duplicate; for susceptibility of strain JH642 expZ::CAT: B. subtilis harA::CAT insertion mutant.
Excerpt: A B. subtilis strain expressing a harA::CAT insertion mutant was produced by single-crossover recombination using integrative plasmid pJPM1. Plasmid pJPM1 is a pSK^− derivative that carries the cat gene of S. aureus plasmid pC194 that confers chloramphenicol resistance in B. subtilis. […] However, if any DNA fragment providing a region of homology with the B. subtilis chromosome is inserted into this plasmid, it acquires the ability to transform B. subtilis competent cells to cat resistance at high frequency. The integration occurs via a Campbell-type (single crossover) recombination event that results in the duplication of the cloned region at either end of the vector. Reversal of the integration event leads to precise excision of the plasmid and restoration of gene structure on the chromosome. An internal fragment of the B. subtilis harA gene was excised using EcoRV and EcoRI and subcloned into compatible sites in pJPM1 creating plasmid pJPM1-expZ1. Plasmid pJPM1-expZ1 was used to transform the naturally competent B. subtilis strain JH642 (hygromycin-resistant) and transformants selected using chloramphenicol ([…]). A harA::CAT insertion mutant was confirmed by PCR and the strain was designated “JH642 expZ::CAT.” Strain JH642 expZ::CAT was hypersensitive to hygromycin analogues and other unrelated antibiotics including lankacidin and virginiamycin. Strain JH642 expZ::CAT was deposited with the ATCC on Sep. 26, 2000, and accorded Accession No. PTA-2480.
as §1, §2, §3

The subject of test [2] is E. faecalis OGX1 str gel ("EF1"). Nature of the test: MIC by broth microdilution, wild-type resistant E. faecalis OG1X. It is filed as cell-based, Enterococcus faecalis. As to conditions: duplicate. The protocol:
as §1, §2, §3

For another test, the system named is EF1 (harA::erm). The experiment in a line: MIC by broth microdilution, E. faecalis OG1X harA disruption mutant. Format: cell-based, Enterococcus faecalis. As to conditions: for MIC: EF1 (harA::erm), disruption mutant, broth microdilution, duplicate; for decrease in the MIC when the harA gene is disrupted: E. faecalis OG1X; for susceptibility of strain OG1X harA::erm: E. faecalis harA::erm knockout strain.
Excerpt: A PCR product corresponding to an internal segment of the E. faecalis harA gene was generated to obtain pVA891 -expZ by using the E. coli vector pVA891, which carries an ERM determinant that expresses in E. coli and E. faecalis. Briefly, internal harA primers were used (sense: 5′-[…]-3′-SEQ ID NO: 5); (antisense: 5′-[…]-3′-SEQ ID NO: 6) with E. faecalis genomic template DNA to generate a 665 bp PCR product. PCR-generated fragments were purified using the QIAquick PCR purification kit and cloned into the T-A cloning plasmid pGem-T Easy. The fragment was subsequently excised using EcoRI, gel purified using the S&S Elu-Quik kit, and cloned into the EcoRI site of pVA891. The ligation was transformed in E. coli DH5α with selection for erythromycin resistance (200 μg/mL); resulting in pVA891-expZ. The plasmid pVA891-expz was introduced by electroporation into E. faecalis OG1X (hygromycin resistant), where integrants occurring via homologous recombination were selected using erythromycin (20 μg/mL). The harA::erm knockout strain was confirmed by PCR and designated “OG1X harA::erm.” Strain OG1X harA::erm was hypersensitive to nonpolar hygromycin A analogues, lankacidin, virginiamycin and Synercid®. Revertants (i.e., resistant strains) could be obtained by growing for several generations in the absence of erythromycin and identified by screening for resistance to hygromycin A and sensitivity to erythromycin. Strain OG1X harA::erm was deposited with the ATCC on Sep. 26, 2000, and was accorded Accession No. PTA-2550.
as §1, §2, §3

The mark [3] stands for this setting: SA1 (pMP20), wild-type, sensitive + vector only, broth microdilution, duplicate.
The mark [4] stands for this setting: SA1 (pMP20 Bs_harA+), sensitive + vector with B. subtilis harA, broth microdilution, duplicate.

≈ marks a conversion by molar mass, not a printed value.

For the molecule `C/C(=C\c1ccc(O[C@H]2C[C@H](O)[C@@H](/C(C)=C/COc3ccc(Cl)cc3Cl)O2)c(O)c1)C(=O)N[C@@H]1[C@H](O)[C@@H](O)[C@H]2OCO[C@H]2[C@@H]1O` [Compound 1], the MIC entry with S. aureus RN4220 ("SA1") was “≦0.2 μg/mL”; against SA1 (pMP20) (S. aureus pMP20 transformants (library selection, text)) it was at most 0.2 µg/mL; with SA1 (pMP20) (setting [3]), “≦0.2 μg/mL”; in the test on SA1 (pMP20 Bs_harA+) (S. aureus cells transformed with the recombinant plasmids carrying B. subtilis DNA segments) it was 50 µg/mL; in the test with SA1 (pMP20 Bs_harA+) (setting [4]) it was 100 µg/mL; in test [1], 50 µg/mL (≈ 74.8 µM). Moreover, the MIC entry is “≦0.2 μg/mL” with BS1 (harA::cat), 1.25 µg/mL (≈ 1.87 µM) in test [2] and “≦0.2 μg/mL” with EF1 (harA::erm). Besides, the “sensitivity of vector-transformed S. aureus cells on selection plates” value with SA1 (pMP20) (2 μg/mL of compound on plates) is “sensitive”. For the same molecule, the “increase in the MIC” value in the test with SA1 (pMP20 Bs_harA+) is around 500 fold.

Consider Lankacidin, for which the MIC is 3.13 µg/mL in the test with S. aureus RN4220 ("SA1"); above 100 µg/mL in the test with SA1 (pMP20 Bs_harA+) (setting [4]); above 100 µg/mL in test [1]; 1.56 µg/mL in the test with BS1 (harA::cat); above 100 µg/mL in test [2]; 0.39 µg/mL with EF1 (harA::erm). For the same molecule, the “susceptibility of strain JH642 expZ::CAT” value in the test with BS1 (harA::cat) was “hypersensitive”. The “decrease in the MIC when the harA gene is disrupted” value (from here on “decrease in the MIC”) in the test on EF1 (harA::erm) was “greater than 100 fold”. The “susceptibility of strain OG1X harA::erm” value in the test on EF1 (harA::erm) is given as “hypersensitive”.

Take `CC1=C\[C@@H](O)CC(=O)Cc2nc(co2)C(=O)N2CCC=C2C(=O)O[C@H](C(C)C)[C@H](C)/C=C/C(=O)NC\C=C\1` [Virginiamycin A]: the MIC against S. aureus RN4220 ("SA1") amounted to 0.78 µg/mL (≈ 1.48 µM); in the test with SA1 (pMP20) (setting [3]) it was 0.78 µg/mL; in the test with SA1 (pMP20 Bs_harA+) (setting [4]), 50 µg/mL; in test [1], 25 µg/mL (≈ 47.6 µM); in the test on BS1 (harA::cat), 0.78 µg/mL; in test [2], 25 µg/mL (≈ 47.6 µM). Also, the MIC in the test on EF1 (harA::erm) turned out to be 1.56 µg/mL. In addition, the “susceptibility of strain JH642 expZ::CAT” value with BS1 (harA::cat) was “hypersensitive”. For the same molecule, the “susceptibility of strain OG1X harA::erm” value in the test on EF1 (harA::erm) is given as “hypersensitive”.

Consider `CC(=O)[C@H]1O[C@@H](Oc2ccc(/C=C(\C)C(=O)N[C@@H]3[C@H](O)[C@@H](O)[C@H]4OCO[C@H]4[C@@H]3O)cc2O)[C@@H](O)[C@@H]1O` [Hygromycin A], for which the MIC against S. aureus RN4220 ("SA1") was found to be 31.3 µg/mL (≈ 61.2 µM); in the test on SA1 (pMP20 Bs_harA+) (setting [4]), 250 µg/mL; in test [1], 250 µg/mL (≈ 489 µM); with BS1 (harA::cat) it was 15.6 µg/mL; in test [2] it was 62.5 µg/mL (≈ 122 µM); in the test with EF1 (harA::erm), 7.8 µg/mL. Besides, in the test on SA1 (pMP20 Bs_harA+), the “increase in the MIC” value is reported as “about 8 fold”. For the same molecule, the “decrease in the MIC” value in the test on BS1 (harA::cat) (B. subtilis JH642) is “about 16 fold”.

`C/C(=C\c1ccc(O[C@@H]2O[C@H](/C(C)=N/OCc3cccc(Cl)c3)[C@@H](O)[C@@H]2O)c(O)c1)C(=O)N[C@@H]1[C@H](O)[C@@H](O)[C@H]2OCO[C@H]2[C@@H]1O` [Compound 3, 5-deoxy-5-[[3-[4-[(6-deoxy-β-D-arabino-hexofuranos-5-ulos-1-yl)oxy]-3-hydroxyphenyl]-2-methyl-1-oxo-2-(E)-propenyl]amino]-1,2-O-methylene-D-neo-inositol, (E)-O-[(3-chlorophenyl)methyl]oxime]: the MIC is 0.39 µg/mL (≈ 0.599 µM) with S. aureus RN4220 ("SA1"); 0.39 µg/mL with SA1 (pMP20) (setting [3]); above 100 µg/mL in the test on SA1 (pMP20 Bs_harA+) (setting [4]); above 100 µg/mL in test [1]; 0.78 µg/mL in the test on BS1 (harA::cat); 1.56 µg/mL (≈ 2.4 µM) in test [2]. Moreover, the MIC entry in the test on EF1 (harA::erm) is recorded as “≦0.2 μg/mL”.

As to “5-deoxy-5[4-[(2,6-dideoxy-β-D-erythro-hexofuranos-5-ulos-1-yl)oxy]-3-hydroxyphenyl]-2-methyl-1-oxo-2-(E)-propenyl]amino]-1,2-O-methylene-D-neo-inositol, (E)-O-[(3-chlorophenyl)methyl]oxime [Compound 2]”, the MIC result in the test with S. aureus RN4220 ("SA1") is “≦0.2 μg/mL”; with SA1 (pMP20) (setting [3]), “≦0.2 μg/mL”; in the test on SA1 (pMP20 Bs_harA+) (setting [4]), 50 µg/mL; in test [1], 100 µg/mL; with BS1 (harA::cat) it was 0.39 µg/mL; in test [2], 1.25 µg/mL. In addition, the MIC result with EF1 (harA::erm) is “≦0.2 μg/mL”. In addition, the “decrease in the MIC” value with EF1 (harA::erm) was “greater than 4 fold”.

For orientation: MIC means the least concentration at which growth counts as inhibited.
